ChEMBL document CHEMBL3124838, “Discovery of 6-aryl-azabenzimidazoles that inhibit the TBK1/IKK-ε kinases” (Bioorg Med Chem Lett, 2014)

target: T1, Dual specificity tyrosine-phosphorylation-regulated kinase 2 (Homo sapiens) (UniProt Q92630); assay: Inhibition of human DYRK2 assessed as residual activity at 1 uM relative to control
T1 sequence (whole entry): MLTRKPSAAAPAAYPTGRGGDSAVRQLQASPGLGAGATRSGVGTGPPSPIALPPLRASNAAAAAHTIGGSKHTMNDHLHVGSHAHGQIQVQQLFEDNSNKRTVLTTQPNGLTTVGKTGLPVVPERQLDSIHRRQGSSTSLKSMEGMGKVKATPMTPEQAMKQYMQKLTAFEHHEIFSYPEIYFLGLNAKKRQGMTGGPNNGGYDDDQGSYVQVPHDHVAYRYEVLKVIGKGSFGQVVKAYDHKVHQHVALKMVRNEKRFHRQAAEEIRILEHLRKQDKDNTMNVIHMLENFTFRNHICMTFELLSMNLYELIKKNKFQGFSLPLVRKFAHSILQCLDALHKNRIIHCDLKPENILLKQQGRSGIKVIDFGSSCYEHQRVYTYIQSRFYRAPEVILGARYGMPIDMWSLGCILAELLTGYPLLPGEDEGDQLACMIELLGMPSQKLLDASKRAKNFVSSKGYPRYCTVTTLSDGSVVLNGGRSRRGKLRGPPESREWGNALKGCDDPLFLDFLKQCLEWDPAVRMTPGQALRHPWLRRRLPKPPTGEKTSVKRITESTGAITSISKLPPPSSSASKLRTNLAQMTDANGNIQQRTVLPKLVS

| Activity [%] | Structure (SMILES) |
| --- | --- |
| 30 | COc1ccc(-c2nc3cc(-c4csc(C(=O)NCC(C)(C)C)c4)cnc3[nH]2)cc1 |
| 20 | COc1ccc(-c2nc3cc(-c4csc(C(=O)NCC(C)C)c4)cnc3[nH]2)cc1 |
| 11 | COc1ccc(-c2nc3cc(-c4csc(C(=O)NCCC(C)C)c4)cnc3[nH]2)cc1 |

target: Mitogen-activated protein kinase kinase kinase 9 (Homo sapiens) (UniProt P80192); assay: Inhibition of human MLK1 assessed as residual activity at 1 uM relative to control
Sequence (P80192 whole entry, looked up): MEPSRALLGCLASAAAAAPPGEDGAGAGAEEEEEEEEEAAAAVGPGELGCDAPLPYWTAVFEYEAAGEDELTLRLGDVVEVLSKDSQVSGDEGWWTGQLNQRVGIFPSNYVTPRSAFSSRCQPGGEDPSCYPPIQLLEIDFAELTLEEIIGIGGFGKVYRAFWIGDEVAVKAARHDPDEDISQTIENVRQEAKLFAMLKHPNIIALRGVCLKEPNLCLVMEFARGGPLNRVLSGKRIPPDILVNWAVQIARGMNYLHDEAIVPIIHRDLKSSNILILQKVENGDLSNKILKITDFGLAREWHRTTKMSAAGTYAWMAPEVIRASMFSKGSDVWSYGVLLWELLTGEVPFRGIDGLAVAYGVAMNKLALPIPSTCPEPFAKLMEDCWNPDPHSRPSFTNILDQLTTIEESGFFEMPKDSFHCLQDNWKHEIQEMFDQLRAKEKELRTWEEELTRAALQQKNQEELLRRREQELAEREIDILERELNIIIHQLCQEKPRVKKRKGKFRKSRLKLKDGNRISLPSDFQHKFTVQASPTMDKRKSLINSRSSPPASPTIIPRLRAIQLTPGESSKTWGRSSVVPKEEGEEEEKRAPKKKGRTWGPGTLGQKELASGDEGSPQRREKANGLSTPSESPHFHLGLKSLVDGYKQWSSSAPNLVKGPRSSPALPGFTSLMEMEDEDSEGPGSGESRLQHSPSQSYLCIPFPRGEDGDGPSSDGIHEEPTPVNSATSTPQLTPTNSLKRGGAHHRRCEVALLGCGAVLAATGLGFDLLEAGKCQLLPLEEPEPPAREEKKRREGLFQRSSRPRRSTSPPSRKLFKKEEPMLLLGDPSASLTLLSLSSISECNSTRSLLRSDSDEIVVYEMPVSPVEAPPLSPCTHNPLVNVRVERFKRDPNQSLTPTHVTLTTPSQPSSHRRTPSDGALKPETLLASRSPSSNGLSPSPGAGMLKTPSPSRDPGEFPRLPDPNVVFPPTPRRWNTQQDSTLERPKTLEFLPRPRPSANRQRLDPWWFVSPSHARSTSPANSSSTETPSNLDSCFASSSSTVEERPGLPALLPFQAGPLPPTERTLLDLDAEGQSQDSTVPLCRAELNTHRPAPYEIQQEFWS

| Activity [%] | Structure (SMILES) |
| --- | --- |
| 37 | COc1ccc(-c2nc3cc(-c4csc(C(=O)NCC(C)(C)C)c4)cnc3[nH]2)cc1 |
| 30 | COc1ccc(-c2nc3cc(-c4csc(C(=O)NCC(C)C)c4)cnc3[nH]2)cc1 |
| 23 | COc1ccc(-c2nc3cc(-c4csc(C(=O)NCCC(C)C)c4)cnc3[nH]2)cc1 |

target: T2, TGF-beta receptor type-1 (Homo sapiens) (UniProt P36897); assay: Inhibition of human TGFBR1 assessed as residual activity at 1 uM relative to control
T2 sequence (whole entry): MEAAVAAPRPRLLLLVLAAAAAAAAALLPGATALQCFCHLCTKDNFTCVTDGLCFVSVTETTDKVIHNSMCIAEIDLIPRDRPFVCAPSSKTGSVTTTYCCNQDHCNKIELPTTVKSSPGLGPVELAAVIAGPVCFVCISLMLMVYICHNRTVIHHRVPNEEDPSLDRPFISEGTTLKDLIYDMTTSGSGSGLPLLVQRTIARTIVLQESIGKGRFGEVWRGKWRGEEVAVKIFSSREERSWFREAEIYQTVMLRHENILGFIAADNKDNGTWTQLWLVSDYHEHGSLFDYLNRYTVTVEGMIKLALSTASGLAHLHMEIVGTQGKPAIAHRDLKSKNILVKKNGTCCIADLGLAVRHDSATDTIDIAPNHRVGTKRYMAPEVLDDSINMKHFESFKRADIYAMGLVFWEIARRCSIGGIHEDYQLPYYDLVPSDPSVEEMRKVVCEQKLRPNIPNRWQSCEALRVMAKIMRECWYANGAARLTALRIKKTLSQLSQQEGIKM

| Activity [%] | Structure (SMILES) |
| --- | --- |
| 111 | COc1ccc(-c2nc3cc(-c4csc(C(=O)NCC(C)(C)C)c4)cnc3[nH]2)cc1 |
| 104 | COc1ccc(-c2nc3cc(-c4csc(C(=O)NCC(C)C)c4)cnc3[nH]2)cc1 |
| 85 | COc1ccc(-c2nc3cc(-c4csc(C(=O)NCCC(C)C)c4)cnc3[nH]2)cc1 |

target: T3, Ephrin type-B receptor 4 (Homo sapiens) (UniProt P54760); assay: Inhibition of human EPHB4 assessed as residual activity at 1 uM relative to control
T3 sequence (whole entry): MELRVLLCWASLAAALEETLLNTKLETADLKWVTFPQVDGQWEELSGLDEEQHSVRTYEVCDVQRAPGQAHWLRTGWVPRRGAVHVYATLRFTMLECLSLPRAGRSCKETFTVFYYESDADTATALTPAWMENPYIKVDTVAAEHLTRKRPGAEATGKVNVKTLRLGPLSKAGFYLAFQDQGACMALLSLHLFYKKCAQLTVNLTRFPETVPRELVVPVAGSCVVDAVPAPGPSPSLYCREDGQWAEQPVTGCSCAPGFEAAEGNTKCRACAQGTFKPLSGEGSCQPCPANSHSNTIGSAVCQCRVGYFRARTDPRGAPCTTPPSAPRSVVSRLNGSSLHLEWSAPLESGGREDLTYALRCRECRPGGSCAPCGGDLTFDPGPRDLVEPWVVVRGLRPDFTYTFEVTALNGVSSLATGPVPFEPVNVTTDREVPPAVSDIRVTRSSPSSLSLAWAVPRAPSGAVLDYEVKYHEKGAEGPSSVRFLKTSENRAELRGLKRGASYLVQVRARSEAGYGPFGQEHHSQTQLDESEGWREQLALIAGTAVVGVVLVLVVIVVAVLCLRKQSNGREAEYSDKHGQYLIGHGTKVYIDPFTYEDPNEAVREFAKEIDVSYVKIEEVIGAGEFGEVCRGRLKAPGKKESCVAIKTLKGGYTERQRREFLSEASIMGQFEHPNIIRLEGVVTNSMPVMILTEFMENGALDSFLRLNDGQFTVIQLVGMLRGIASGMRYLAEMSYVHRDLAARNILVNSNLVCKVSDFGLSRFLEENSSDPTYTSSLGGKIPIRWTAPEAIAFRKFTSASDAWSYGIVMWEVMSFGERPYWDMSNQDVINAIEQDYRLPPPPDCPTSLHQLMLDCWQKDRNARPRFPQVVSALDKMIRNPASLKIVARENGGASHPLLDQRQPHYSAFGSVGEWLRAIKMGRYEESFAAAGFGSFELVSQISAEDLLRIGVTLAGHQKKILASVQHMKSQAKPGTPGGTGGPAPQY

| Activity [%] | Structure (SMILES) |
| --- | --- |
| 79 | COc1ccc(-c2nc3cc(-c4csc(C(=O)NCC(C)(C)C)c4)cnc3[nH]2)cc1 |
| 74 | COc1ccc(-c2nc3cc(-c4csc(C(=O)NCC(C)C)c4)cnc3[nH]2)cc1 |
| 95 | COc1ccc(-c2nc3cc(-c4csc(C(=O)NCCC(C)C)c4)cnc3[nH]2)cc1 |

target: Proto-oncogene tyrosine-protein kinase Src (Homo sapiens) (UniProt P12931); assay: Inhibition of human SRC (1 to 530) assessed as residual activity at 1 uM relative to control
Sequence (P12931 2-536 limits assumed): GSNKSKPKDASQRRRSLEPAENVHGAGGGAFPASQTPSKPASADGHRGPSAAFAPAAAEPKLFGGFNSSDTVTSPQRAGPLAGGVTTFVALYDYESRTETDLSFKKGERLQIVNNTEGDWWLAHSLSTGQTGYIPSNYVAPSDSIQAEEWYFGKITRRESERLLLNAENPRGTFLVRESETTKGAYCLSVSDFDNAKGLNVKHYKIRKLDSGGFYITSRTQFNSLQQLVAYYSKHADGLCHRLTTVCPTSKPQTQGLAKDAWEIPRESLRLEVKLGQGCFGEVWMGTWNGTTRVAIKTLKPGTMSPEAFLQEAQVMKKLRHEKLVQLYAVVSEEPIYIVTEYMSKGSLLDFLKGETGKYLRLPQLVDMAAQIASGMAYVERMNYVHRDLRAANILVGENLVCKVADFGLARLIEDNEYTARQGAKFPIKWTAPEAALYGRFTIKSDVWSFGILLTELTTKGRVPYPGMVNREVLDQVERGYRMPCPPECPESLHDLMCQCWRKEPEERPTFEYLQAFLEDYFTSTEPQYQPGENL

| Activity [%] | Structure (SMILES) |
| --- | --- |
| 47 | COc1ccc(-c2nc3cc(-c4csc(C(=O)NCC(C)(C)C)c4)cnc3[nH]2)cc1 |
| 25 | COc1ccc(-c2nc3cc(-c4csc(C(=O)NCC(C)C)c4)cnc3[nH]2)cc1 |
| 23 | COc1ccc(-c2nc3cc(-c4csc(C(=O)NCCC(C)C)c4)cnc3[nH]2)cc1 |

target: T4, Serine/threonine-protein kinase Chk1 (Homo sapiens) (UniProt O14757); assay: Inhibition of human CHK1 assessed as residual activity at 1 uM relative to control
T4 sequence (whole entry): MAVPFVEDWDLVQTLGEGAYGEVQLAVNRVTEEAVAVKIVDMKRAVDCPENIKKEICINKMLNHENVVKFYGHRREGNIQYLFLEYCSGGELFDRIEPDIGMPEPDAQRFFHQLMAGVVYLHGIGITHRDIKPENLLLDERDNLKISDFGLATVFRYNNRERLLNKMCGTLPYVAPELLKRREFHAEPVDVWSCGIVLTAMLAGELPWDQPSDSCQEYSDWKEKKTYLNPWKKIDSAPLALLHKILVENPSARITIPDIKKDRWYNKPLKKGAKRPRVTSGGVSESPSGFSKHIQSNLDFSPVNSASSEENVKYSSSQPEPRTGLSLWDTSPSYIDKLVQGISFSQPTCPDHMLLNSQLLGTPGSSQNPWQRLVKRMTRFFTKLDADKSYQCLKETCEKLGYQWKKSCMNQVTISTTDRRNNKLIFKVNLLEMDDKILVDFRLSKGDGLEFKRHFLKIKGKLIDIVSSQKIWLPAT

| Activity [%] | Structure (SMILES) |
| --- | --- |
| 103 | COc1ccc(-c2nc3cc(-c4csc(C(=O)NCC(C)(C)C)c4)cnc3[nH]2)cc1 |
| 99 | COc1ccc(-c2nc3cc(-c4csc(C(=O)NCC(C)C)c4)cnc3[nH]2)cc1 |
| 90 | COc1ccc(-c2nc3cc(-c4csc(C(=O)NCCC(C)C)c4)cnc3[nH]2)cc1 |
